Reference: US12208110B2 (priority 2020, dated 2025)

What was measured:
[1] = test system: RSV-Fluc (Recombinant Respiratory Syncytial virus strain A2 containing the firefly luciferase reporter); test: microbe, parasite or virus in culture; format: cell-based; conditions: human respiratory syncytial virus, NHBE, 72 h, read-out: RSV-Fluc EC50 (nM, NHBE)
[2] = MT4 cytotoxicity analysis (CellTiter-Glo); format: cell-based; conditions: human, MT4 CC50 (nM)
Procedure, shortened: (§1)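 MT-4 cells were exposed in quadruplicate to 3-fold serial compound dilutions (DMSO stocks 2.5 uM to 10 mM) for five days at 37 °C. Viability was read by CellTiter-Glo luminescence.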

[3] = parameters: species or system Sprague-Dawley (SD) rats; conditions: male, Sprague-Dawley, rat, in vivo, po, 10 mg/kg
Description: Example 80: Rat Lung Phosphate (Monophosphate, Diphosphate and Triphosphate) Data with Exemplary Compounds
Measurement of GS-441524 (compound A below) and its phosphorylated metabolites (compounds B, C, and D below) in lung tissues was performed according to the following protocol.
The concentrations of GS-441524 (A) and its phosphorylated metabolites (B, C, and D) were determined in Sprague-Dawley (SD) rats following oral gavage administration of the test compounds. The in-life phase of studies was conducted at Covance Laboratories (Madison, WI). Animals were housed and handled in accordance with the Guide for the Care and Use of Laboratory Animals, Institute of Laboratory Animal Resources. The protocols were reviewed and approved by the Institutional Animal Care and Use Committees (IACUC). Male SD rats weighing approximately 0.3 kg were used for in-life portion of the studies. The animals were fasted overnight prior to the test compound administration and up to 4 hours post-dose. The animals were administered with the test compound at 5, 8, 10 or 20 mg/kg via oral gavage (3 rats per group). The aqueous formulation contains ethanol, dimethyl sulfoxide, Kolliphor HS-15, Labrasol, and propylene glycol. Approximately 0.5 grams of lung tissue samples were collected from each animal and analyzed by LC/MS/MS for determination of the concentrations of GS-441524 and its phosphorylated metabolites. For LC-MS/MS analysis, tissue samples were homogenized and extracted with 4-fold volume of 70% methanol containing 0.1% potassium hydroxide, 67 mM ethylenediamine tetraacetic acid, and internal standard. Approximately 200 μL aliquot of the homogenate was filtered using a 96-well filter plate (0.2 μm polypropylene; Agilent Captiva, Santa Clara, CA). The filtrate was evaporated to dryness and reconstituted with equal volume of 1 mM ammonium phosphate buffer (pH 7). The samples were then analyzed on a Sciex 6500+ LC-MS/MS instrument (Redwood City, CA). Analytes were eluted on a […] 50×2.0 mm Phenomenex Luna C18 HST column (Torrance, CA) using mobile phases containing 3 mM ammonium formate and 10 mM dimethylhexylamine and a linear gradient from 9% to 50% acetonitrile at a flow rate of 360 μL/min. Data acquisition and processing were accomplished using Sciex Analyst® Software. Total summed levels of GS-441524 phosphorylate metabolites (B+C+D) in lung tissues were generated from the sum of GS-441524 mono-, di- and tri-phosphate (B, C, and D respectively).

SARS-CoV-2 = test: microbe, parasite or virus in culture; format: cell-based; conditions: Severe acute respiratory syndrome coronavirus 2, 48 h
MT-4 cells = test: MT4 cytotoxicity analysis (CellTiter-Glo); format: cell-based; conditions: human, 5 days
Procedure, shortened: as §1

in vitro = format: cell-based; conditions: human
Description: Example 78: A549 Cytotoxicity Analysis
The cytotoxicity of compounds is determined in A549 cells in the following manner. Compounds (40 nL) are spotted onto 384-well Grenier plates prior to seeding 5000 A549 cells/well in a volume of 40 μL culture medium. The plates are incubated at 37° C. for 48 hours with 5% CO2. On day 2, 40 μL of CellTiter-Glo (Promega) is added and mixed 5 times. Plates are read for luminescence on an Envision (PerkinElmer) and the CC50 (compound concentration for reducing 50% of luminescence signal as a measure of cell viability) are calculated using a nonlinear regression model (four parameters). Two experiments are performed with technical duplicates.

SMILES | EC50 [1] | CC50 at 5 days [2] | Total Lung Phosphate Level (monophosphate + diphosphate + triphosphate, nmol/g) [3] | EC50 (SARS-CoV-2) | CC50 (MT-4 cells) | CC50 at 48 h (in vitro)
CCCCCCCCCCCCCCCCCCOC[C@H](COP(=O)(O)OC[C@H]1O[C@@](C#N)(c2ccc3c(N)ncnn23)[C@H](O)[C@@H]1O)N(C)Cc1ccc(F)c(Cl)c1 [Example 3, ((2R,3S,4R,5R)-5-(4-aminopyrrolo[2,1-f][1,2,4]triazin-7-yl)-5-cyano-3,4-dihydroxytetrahydrofuran-2-yl)methyl ((R)-2-((3-chloro-4-fluorobenzyl)(methyl)amino)-3-(octadecyloxy)propyl) hydrogen phosphate] | 350 nM | 5700 nM | 0.6 nmol/g | 2300 nM | – | –
CCCCCCCCCCCCCCCCCCOC[C@H](COP(=O)(O)OC[C@H]1O[C@@](C#N)(c2ccc3c(N)ncnn23)[C@H](O)[C@@H]1O)NC(=O)c1ccccc1 [Example 30, ((2R,3S,4R,5R)-5-(4-aminopyrrolo[2,1-f][1,2,4]triazin-7-yl)-5-cyano-3,4-dihydroxytetrahydrofuran-2-yl)methyl ((R)-2-benzamido-3-(octadecyloxy)propyl) hydrogen phosphate] | 130 nM | – | – | 8300 nM | 50000 nM | –
CCCCCCCCCCCCCCCCCCOC[C@H](COP(=O)(O)OC[C@H]1O[C@@](C#N)(c2ccc3c(N)ncnn23)[C@H](O)[C@@H]1O)Oc1cc(OC)c(C#N)c(OC)c1 [Example 34, ((2R,3S,4R,5R)-5-(4-aminopyrrolo[2,1-f][1,2,4]triazin-7-yl)-5-cyano-3,4-dihydroxytetrahydrofuran-2-yl)methyl ((R)-2-(4-cyano-3,5-dimethoxyphenoxy)-3-(octadecyloxy)propyl) hydrogen phosphate] | 11 nM | 460 nM | 2.4 nmol/g | 43 nM | – | 10000 nM
CCCCCCCCCCCCCCCCCCC[C@H](COP(=O)(O)OC[C@H]1O[C@@](C#N)(c2ccc3c(N)ncnn23)[C@H](O)[C@@H]1O)OCc1cc(F)cc(C#N)c1 [Example 35, ((2R,3S,4R,5R)-5-(4-aminopyrrolo[2,1-f][1,2,4]triazin-7-yl)-5-cyano-3,4-dihydroxytetrahydrofuran-2-yl)methyl ((R)-2-((3-cyano-5-fluorobenzyl)oxy)henicosyl) hydrogen phosphate] | 95 nM | 830 nM | 2.7 nmol/g | 570 nM | – | 16000 nM
CCCCCCCCCCCCCCCCCCOC[C@H](COP(=O)(O)OC[C@H]1O[C@@](C#N)(c2ccc3c(N)ncnn23)[C@H](O)[C@@H]1O)OCc1cc(OC)c(C#N)c(OC)c1 [Example 55, ((2R,3S,4R,5R)-5-(4-aminopyrrolo[2,1-f][1,2,4]triazin-7-yl)-5-cyano-3,4-dihydroxytetrahydrofuran-2-yl)methyl ((R)-2-((4-cyano-3,5-dimethoxybenzyl)oxy)-3-(octadecyloxy)propyl) hydrogen phosphate] | 24 nM | 270 nM | 2.1 nmol/g | – | – | –
CCCCCCCCCCCCCCCCCCOC[C@H](COP(=O)(O)OC[C@H]1O[C@@](C#N)(c2ccc3c(N)ncnn23)[C@H](O)[C@@H]1O)NC(=O)c1cccc(C#N)c1 [Example 57, ((2R,3S,4R,5R)-5-(4-aminopyrrolo[2,1-f][1,2,4]triazin-7-yl)-5-cyano-3,4-dihydroxytetrahydrofuran-2-yl)methyl ((R)-2-(3-cyanobenzamido)-3-(octadecyloxy)propyl) hydrogen phosphate] | 330 nM | – | – | 4900 nM | 50000 nM | –
CCCCCCCCCCCCSCCCOP(=O)(O)OC[C@H]1O[C@@](C#N)(c2ccc3c(N)ncnn23)[C@H](O)[C@@H]1O [Example 63, [(2R,3S,4R,5R)-5-(4-Aminopyrrolo[2,1-f][1,2,4]triazin-7-yl)-5-cyano-3,4-dihydroxy-tetrahydrofuran-2-yl]methyl 3-dodecylsulfanylpropyl hydrogen phosphate] | 470 nM | – | – | 10000 nM | 50000 nM | –
CCCCCCCCCCCCCCCCCCOC[C@H](CO[P@@](=O)(S)OC[C@H]1O[C@@](C#N)(c2ccc3c(N)ncnn23)[C@H](O)[C@@H]1O)OCc1ccccc1 [Example 67, O-(((2R,3S,4R,5R)-5-(4-aminopyrrolo[2,1-f][1,2,4]triazin-7-yl)-5-cyano-3,4-dihydroxytetrahydrofuran-2-yl)methyl) O—((R)-2-(benzyloxy)-3-(octadecyloxy)propyl) O-hydrogen (R)-phosphorothioate] | 190 nM | – | – | 120 nM | 26000 nM | –
CCCCCCCCCCCCCCCCCCOC[C@H](COP(=O)(O)OC[C@H]1O[C@@](C#N)(c2ccc3c(N)ncnn23)[C@H](O)[C@@H]1O)OCc1ccccc1 [Reference Compound, reference compound] | – | – | 0.5 nmol/g | – | – | –
